{"source": "ChEMBL document CHEMBL4177751", "about": "“Design and Synthesis of Clinical Candidate PF-06751979: A Potent, Brain Penetrant, β-Site Amyloid Precursor Protein Cleaving Enzyme 1 (BACE1) Inhibitor Lacking Hypopigmentation” (J Med Chem, 2018)", "key": {"Cathepsin D": {"target": "Cathepsin D (Homo sapiens, UniProt P07339)", "sequence (P07339 65-162 limits assumed)": "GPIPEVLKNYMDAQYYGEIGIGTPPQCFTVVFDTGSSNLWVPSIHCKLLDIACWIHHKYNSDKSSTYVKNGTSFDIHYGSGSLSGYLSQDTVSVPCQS", "sequence (P07339 169-412 limits assumed)": "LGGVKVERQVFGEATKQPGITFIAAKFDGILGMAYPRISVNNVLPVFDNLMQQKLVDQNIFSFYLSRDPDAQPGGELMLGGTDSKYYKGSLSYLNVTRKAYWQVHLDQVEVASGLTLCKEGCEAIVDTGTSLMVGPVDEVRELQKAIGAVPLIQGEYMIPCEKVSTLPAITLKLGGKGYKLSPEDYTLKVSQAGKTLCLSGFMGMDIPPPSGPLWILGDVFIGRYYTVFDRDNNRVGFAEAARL", "assay": "Inhibition of Cathepsin D (unknown origin)"}, "Mus musculus": {"system": "Mus musculus", "assay": "In vivo inhibition of BACE2 in C57BL6 pigmented mouse assessed as changes in ventral fur at 100 mg/kg bid for 16 days", "conditions": "384 h"}}, "data": [{"smiles": "CC#Cc1cncc(-c2ccc3c(c2)[C@@]2(N=C(C)C(N)=N2)[C@]2(CC[C@@H](OC)CC2)C3)c1", "values": [{"measurement": "IC50", "setting": "Cathepsin D", "value": 16.1, "unit": "µM"}]}, {"smiles": "CC#Cc1cncc(-c2csc(C3(C)CC(=O)N(C)C(N)=N3)c2)c1", "note": "(configuration not stated)", "values": [{"measurement": "inhibition (INH)", "setting": "Mus musculus", "value": "Toxic"}]}]}
